Measured values published in the supplement of paper PMC10307832.

Tests used:
Assay in all cases: relative viability (nuclei count vs DMSO), 5 days (fraction); higher = more cells survive
Pazopanib + Lapatinib = compound: Cc1ccc(Nc2nccc(N(C)c3ccc4c(C)n(C)nc4c3)n2)cc1S(N)(=O)=O [Pazopanib] + CS(=O)(=O)CCNCc1ccc(-c2ccc3ncnc(Nc4ccc(OCc5cccc(F)c5)c(Cl)c4)c3c2)o1 [Lapatinib] (partner 2 µM)
How it was run: (§1)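 Each reported value is a median over duplicate plates. It expresses relative viability: treated-well nuclei count divided by vehicle-well nuclei count. Lung cancer cell lines in 1536-well plates were dosed by pin tool a day after seeding, alone with one drug or with a fixed anchor-drug dose plus five library-drug doses (not always all listed) in √10 steps, and nuclei were counted after 5 days.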

Ponatinib + Phenformin = compound: Cc1ccc(C(=O)Nc2ccc(CN3CCN(C)CC3)c(C(F)(F)F)c2)cc1C#Cc1cnc2cccnn12 [Ponatinib] + N=C(N)NC(=N)NCCc1ccccc1 [Phenformin] (partner 250 µM)
How it was run: as §1

Pazopanib + Vorinostat = compound: Cc1ccc(Nc2nccc(N(C)c3ccc4c(C)n(C)nc4c3)n2)cc1S(N)(=O)=O [Pazopanib] + O=C(CCCCCCC(=O)Nc1ccccc1)NO [Vorinostat] (partner 1 µM)
How it was run: as §1

Ponatinib + Vorinostat = compound: Cc1ccc(C(=O)Nc2ccc(CN3CCN(C)CC3)c(C(F)(F)F)c2)cc1C#Cc1cnc2cccnn12 [Ponatinib] + O=C(CCCCCCC(=O)Nc1ccccc1)NO [Vorinostat] (partner 1 µM)
How it was run: as §1

Cell Line | relative viability (Pazopanib + Lapatinib; first compound 0.01 µM) | relative viability (Pazopanib + Lapatinib; first compound 0.03162 µM) | relative viability (Pazopanib + Lapatinib; first compound 0.1 µM) | relative viability (Pazopanib + Lapatinib; first compound 0.3162 µM) | relative viability (Pazopanib + Lapatinib; first compound 1 µM) | relative viability (Ponatinib + Phenformin; first compound 0.002 µM) | relative viability (Ponatinib + Phenformin; first compound 0.006325 µM) | relative viability (Ponatinib + Phenformin; first compound 0.06325 µM) | relative viability (Ponatinib + Phenformin; first compound 0.2 µM) | relative viability (Pazopanib + Vorinostat; first compound 0.01 µM) | relative viability (Pazopanib + Vorinostat; first compound 0.03162 µM) | relative viability (Pazopanib + Vorinostat; first compound 0.1 µM) | relative viability (Pazopanib + Vorinostat; first compound 0.3162 µM) | relative viability (Pazopanib + Vorinostat; first compound 1 µM) | relative viability (Ponatinib + Vorinostat; first compound 0.002 µM) | relative viability (Ponatinib + Vorinostat; first compound 0.006325 µM) | relative viability (Ponatinib + Vorinostat; first compound 0.06325 µM) | relative viability (Ponatinib + Vorinostat; first compound 0.2 µM)
LXF-289 | 0.908 | 0.935 | 0.902 | 0.909 | 0.897 | 0.513 | 0.545 | 0.525 | 0.445 | 0.767 | 0.798 | 0.779 | 0.732 | 0.812 | 0.646 | 0.746 | 0.732 | 0.793
PC-3 [JPC-3] | 0.367 | 0.463 | 0.493 | 0.468 | 0.451 | 0.461 | 0.502 | 0.502 | 0.477 |  | 0.79 | 0.597 | 0.973 | 0.93 |  | 0.703 | 0.868 | 0.898
NCI-H661 | 0.538 | 0.629 | 0.476 | 0.431 | 0.648 | 0.277 | 0.258 | 0.278 | 0.264 | 0.773 | 0.808 | 0.875 | 0.759 | 0.802 | 0.735 | 0.775 | 0.831 | 0.819
NCI-H1666 | 0.644 | 0.677 | 0.718 | 0.763 | 0.972 | 0.564 | 0.538 | 0.564 | 0.585 | 1.15 | 1.09 | 0.993 | 1.06 | 0.909 | 0.998 | 1.01 | 1.08 | 0.89
NCI-H2085 | 0.511 | 0.794 | 0.762 | 0.785 | 0.853 | 0.649 | 0.708 | 0.682 | 0.641 | 0.674 | 0.849 | 0.758 | 0.838 | 0.86 | 0.768 | 0.877 | 1.02 | 0.825
NCI-H1734 | 0.837 | 0.777 | 1.13 | 1.18 | 1.09 | 0.395 | 0.393 | 0.347 | 0.303 | 0.66 | 0.864 | 0.882 | 0.942 | 0.875 | 0.763 | 0.777 | 0.914 | 0.773
NCI-H2126 | 0.611 | 0.713 | 0.81 | 0.715 | 0.821 | 0.509 | 0.544 | 0.558 | 0.543 | 0.588 | 0.747 | 0.76 | 0.822 | 0.732 | 0.784 | 0.777 | 0.988 | 0.789
EMC-BAC-2 | 0.735 | 0.921 | 0.915 | 0.904 | 0.991 | 0.495 | 0.449 | 0.508 | 0.487 |  | 0.512 | 0.232 | 0.472 | 0.432 | 0.288 | 0.337 | 0.427 | 0.368
NCI-H1993 | 0.69 | 0.853 | 0.573 | 0.797 | 0.927 | 0.57 | 0.512 | 0.532 | 0.508 |  | 0.851 | 0.832 | 0.741 | 0.763 | 0.783 | 1.19 | 0.962 | 0.734
NCI-H596 | 0.931 | 1.03 | 1.03 | 0.981 | 1.17 | 0.621 | 0.82 | 0.7 | 0.568 | 0.598 | 0.634 | 0.578 | 0.691 | 0.642 | 0.659 | 0.7 | 0.556 | 0.522
NCI-H650 | 0.814 | 1.08 | 0.933 | 0.909 | 1.36 | 0.407 | 0.426 | 0.438 | 0.419 | 0.381 | 0.466 | 0.398 | 0.364 | 0.485 | 0.3 | 0.441 | 0.444 | 0.447
SW 1573 | 0.996 | 1.1 | 1.14 | 1.27 | 1.41 | 0.35 | 0.392 | 0.292 | 0.405 | 0.641 | 0.692 | 0.648 | 0.992 | 0.525 | 0.564 | 0.737 | 0.835 | 0.575
NCI-H1650 | 0.693 | 0.868 | 0.718 | 0.82 | 0.895 | 0.454 | 0.521 | 0.389 | 0.37 | 0.654 | 0.615 | 0.605 | 0.59 | 0.704 | 0.642 | 0.539 | 0.654 | 0.65
NCI-H2009 | 0.961 | 0.946 | 0.796 | 0.883 | 0.838 | 0.426 | 0.432 | 0.522 | 0.467 | 0.72 | 0.744 | 0.757 | 0.692 | 0.765 | 0.666 | 0.783 | 0.694 | 0.585
LOU-NH91 | 0.646 | 0.744 | 0.748 | 0.759 | 0.872 | 0.683 | 0.73 | 0.766 | 0.676 | 0.873 | 0.964 | 0.917 | 1.02 | 0.942 | 0.889 | 0.988 | 1.01 | 0.873
NCI-H3122 | 1.09 | 1.04 | 1.17 | 1.01 | 1.08 | 0.301 | 0.378 | 0.384 | 0.356 | 0.794 | 0.926 | 0.89 | 1.02 | 1.05 | 0.936 | 1.07 | 0.994 | 1.05
LCLC-97TM1 |  | 0.613 | 0.974 | 1.52 | 0.918 | 0.489 | 0.432 | 0.467 | 0.411 |  | 0.877 | 0.58 | 0.797 | 0.736 | 0.806 | 0.748 | 0.665 | 0.535
NCI-H647 | 0.87 | 1.21 | 1.17 | 1.08 | 1.16 | 0.413 | 0.626 | 0.699 | 0.42 | 0.443 | 0.59 | 0.706 | 0.394 | 0.421 | 0.381 | 0.588 | 0.686 | 0.513
